# Paper PMC9124818 (Pharmacology Research & Perspectives, 2022)
# Read-outs that look alike come from different tables or passages of the source.
# Tests used:
# CYP1A2 mRNA = assay: CYP450 induction in cultured human hepatocytes, mRNA by qRT-PCR; format: cell-based; conditions: for Fold‐change method: Fold change: highest dose tested (40 µM fenfluramine, 50 µM norfenfluramine); for Fold‐change method: % of control: percent of positive control induction of mRNA
# Protocol: Each PCR was performed in triplicate.
# CYP3A4/5 = assay: Direct CYP450 inhibition in human liver microsomes (midazolam 1'-hydroxylation; testosterone 6β-hydroxylation); conditions: for IC50: direct inhibition, human liver microsomes
# Text: (§1) A mixed‐gender pool of 200 individual human liver microsomal samples was used.
# (§2) This LIMS utilizes the Levenberg-Marquardt algorithm to perform nonlinear regression fitting of the data to the following 4-parameter sigmoidal-logistic IC50 equation:
# (§3) As percent of control values are utilized, the Min is set to 0 and the Max is set to 100 (or other values, as appropriate). […] Therefore, when an IC50 value falls outside the concentration range studied, the IC50 values are reported to be greater than the highest concentrations of test article evaluated.
# CYP2B6 mRNA = assay: CYP450 induction in cultured human hepatocytes, mRNA by qRT-PCR; format: cell-based; conditions: for Fold‐change method: Fold change: highest dose tested (40 µM fenfluramine, 50 µM norfenfluramine); for Basic kinetic model: R3: per FDA Guidance (2020); for Fold‐change method: % of control: percent of positive control induction of mRNA; for Basic kinetic model: Emax (fold) / EC50: ± standard error; for Basic kinetic model: Emax (fold): fit of fold‐change −1 values; for EC50: read-out: Basic kinetic model: EC50
# Protocol: Cells were then harvested to isolate RNA, which was analyzed by quantitative reverse transcription‐polymerase chain reaction (qRT‐PCR) for induction of CYP1A2, CYP2B6, and CYP3A4 mRNA levels. Total RNA was phase extracted with TRIzol followed by purification with an RNeasy Mini Kit (Qiagen Inc., Germantown, MD). Quantitative PCR was performed in triplicate with a 7900HT Fast Real Time PCR System, an Applied Biosystems Universal Master Mix, and TaqMan® Gene Expression Assays. The quantity of target cDNA relative to control cDNA (GAPDH) was determined by the ΔΔCT method (Applied Biosystems User Bulletin #2). Relative quantitation measures the change in mRNA expression in a test sample relative to that in the control sample (i.e., DMSO). This method assumes that the efficiency of target amplification and the efficiency of endogenous control amplification are approximately equal.
# mRNA assessment was conducted using a quantitative reverse transcription-polymerase chain reaction (qRT-PCR) according to the Applied Biosystems protocol. Each PCR was performed in triplicate. A Primer Mix was prepared for each Gene Expression assay. A typical Primer Mix contained TaqMan Fast Advanced Master Mix (1X), Gene Expression Assay (1X, 900 nM forward and reverse primers) and ribonuclease (RNase)-free water. The Reaction Mix was prepared by adding the Primer Mix to cDNA. A percentage of samples (no less than 10%) included NACs. […] The relative quantity of the target cDNA compared with that of the control cDNA (GAPDH) was determined by the ΔΔCt method (Applied Biosystems User Bulletin #2). Relative quantitation measures the change in mRNA expression in a test sample relative to that in a control sample (eg, dimethyl sulfoxide [DMSO]). This method assumes that the efficiency of the target amplification and the efficiency of the endogenous control amplification are approximately equal.
# This software analyzes relative gene expression using the comparative Ct method (ΔΔCt), which relates the PCR signal of the target transcript to the PCR signal of the target in an untreated control. Both the treated sample and the untreated control signals are normalized to the endogenous control (GAPDH), for which expression is not affected by treatment and expression is constant throughout the tissue being tested.
# The level of mRNA expression relative to the positive control was calculated as follows: […]
# P‐gp = target: T1, P‐gp (Homo sapiens, UniProt P08183); assay: Transporter inhibition, bidirectional permeability of digoxin in Caco-2 cells; format: in vitro ADME; conditions: Caco-2; probe digoxin 10 µM; read-out: IC50
# T1 construct: host or cells: Caco-2
# Protocol: The test compound (FFA or nFFA) or the positive control substrate ([…], respectively) was added to the donor chamber. […] Cells were then washed, lysed with scintillation cocktail, and analyzed for the probe substrate with a MicroBeta scintillation counter (PerkinElmer, Hopkinton, MA). Transcellular transporter assay conditions are described in Supplemental Table 1. Calculation of IC50 values was based on bidirectional permeability of probe substrate with and without the inhibitor in MDCKII cells expressing BCRP and in Caco‐2 cells expressing P‐gp, and transporter‐dependent uptake of probe substrate in HEK293 cells expressing all other transporters (Supplemental Table 1).
# The net flux for human epithelial colorectal adenocarcinoma cells (Caco-2; P-gp) and MDCKII-BCRP inhibition determination was calculated according to the equation: […]
# CYP2B6 = target: T2, CYP2B6 (Homo sapiens, UniProt P20813); assay: Direct CYP450 inhibition in human liver microsomes (efavirenz 8-hydroxylation); conditions: substrate efavirenz
# T2 sequence (P20813 1-491): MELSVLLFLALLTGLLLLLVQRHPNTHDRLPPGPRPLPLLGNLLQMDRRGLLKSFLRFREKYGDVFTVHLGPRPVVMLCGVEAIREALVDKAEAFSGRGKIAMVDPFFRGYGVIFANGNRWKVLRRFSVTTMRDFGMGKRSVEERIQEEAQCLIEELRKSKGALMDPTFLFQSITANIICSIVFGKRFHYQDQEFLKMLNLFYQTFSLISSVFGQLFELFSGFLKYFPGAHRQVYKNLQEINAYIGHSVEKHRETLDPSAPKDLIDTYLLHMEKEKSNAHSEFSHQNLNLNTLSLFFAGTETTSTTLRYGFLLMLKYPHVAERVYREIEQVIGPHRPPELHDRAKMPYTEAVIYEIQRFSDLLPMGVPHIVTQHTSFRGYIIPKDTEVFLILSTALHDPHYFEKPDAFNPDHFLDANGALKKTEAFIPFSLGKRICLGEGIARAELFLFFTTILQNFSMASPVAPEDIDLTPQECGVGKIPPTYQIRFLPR
# Text: as §1, §2, §3
# [1] = Pharmacokinetic input parameters of the mechanistic static model (population pharmacokinetics)
# CYP2D6 = CYP2D6 (Homo sapiens, UniProt P10635); assay: Direct CYP450 inhibition in human liver microsomes (dextromethorphan O-demethylation)
# Protocol: Microsomes from non‐transplantable human livers were prepared and characterized as outlined previously.[25], [26] A mixed‐gender pool of 200 individual human liver microsomal samples was used. Substrate concentrations and incubation conditions for determination of the kinetic constant (S50 or Km) used to select marker substrate concentrations were previously determined.[24]
# Summary data are expressed as percent of control and mean ± standard deviation (SD) or standard error of the mean (SEM), as appropriate. Individual values from inhibition studies were processed with the laboratory information management system (LIMS) Galileo v3.3 (Thermo Fisher Scientific), which was used to calculate IC50 values from a four‐parameter logistic regression applied to percent inhibition versus concentration values. […] Based on FDA guidance for metabolism‐ and transporter‐mediated DDI studies,[15] basic kinetic models for transporter inhibition, CYP450 inhibition, and CYP450 induction were employed to calculate R, R1, and R3 values, respectively, and were compared to the respective predetermined threshold values listed in the guidance document.[15] […] Plasma protein binding data were used to estimate input parameters for fraction unbound to plasma proteins in the mechanistic static model (Supplemental Table 2). The fraction absorbed was assumed to be 100%, yielding the highest possible portal concentrations. […] Assays were performed in duplicate or triplicate according to previously published reports. Statistical analysis for replicates was not possible with n = 2 sample sizes.
# as §2, §3
# [2] = all three hepatocyte cultures, FFA up to 40 μM, nFFA 50 μM
# CYP2D6, sequence (P10635 whole entry): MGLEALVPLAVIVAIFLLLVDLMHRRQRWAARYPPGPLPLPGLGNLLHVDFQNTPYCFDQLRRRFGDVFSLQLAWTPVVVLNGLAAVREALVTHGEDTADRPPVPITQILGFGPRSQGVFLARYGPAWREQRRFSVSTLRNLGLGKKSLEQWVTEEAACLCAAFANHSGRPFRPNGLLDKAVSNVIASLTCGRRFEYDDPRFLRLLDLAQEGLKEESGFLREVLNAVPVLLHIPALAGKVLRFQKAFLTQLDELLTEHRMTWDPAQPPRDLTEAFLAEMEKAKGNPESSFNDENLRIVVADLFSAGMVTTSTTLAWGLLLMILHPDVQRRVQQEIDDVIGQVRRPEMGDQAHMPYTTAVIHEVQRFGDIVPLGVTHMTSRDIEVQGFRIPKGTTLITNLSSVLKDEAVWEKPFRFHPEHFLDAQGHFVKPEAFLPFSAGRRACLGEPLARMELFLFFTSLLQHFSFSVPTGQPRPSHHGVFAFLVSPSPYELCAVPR
# T1 sequence (P08183 whole entry): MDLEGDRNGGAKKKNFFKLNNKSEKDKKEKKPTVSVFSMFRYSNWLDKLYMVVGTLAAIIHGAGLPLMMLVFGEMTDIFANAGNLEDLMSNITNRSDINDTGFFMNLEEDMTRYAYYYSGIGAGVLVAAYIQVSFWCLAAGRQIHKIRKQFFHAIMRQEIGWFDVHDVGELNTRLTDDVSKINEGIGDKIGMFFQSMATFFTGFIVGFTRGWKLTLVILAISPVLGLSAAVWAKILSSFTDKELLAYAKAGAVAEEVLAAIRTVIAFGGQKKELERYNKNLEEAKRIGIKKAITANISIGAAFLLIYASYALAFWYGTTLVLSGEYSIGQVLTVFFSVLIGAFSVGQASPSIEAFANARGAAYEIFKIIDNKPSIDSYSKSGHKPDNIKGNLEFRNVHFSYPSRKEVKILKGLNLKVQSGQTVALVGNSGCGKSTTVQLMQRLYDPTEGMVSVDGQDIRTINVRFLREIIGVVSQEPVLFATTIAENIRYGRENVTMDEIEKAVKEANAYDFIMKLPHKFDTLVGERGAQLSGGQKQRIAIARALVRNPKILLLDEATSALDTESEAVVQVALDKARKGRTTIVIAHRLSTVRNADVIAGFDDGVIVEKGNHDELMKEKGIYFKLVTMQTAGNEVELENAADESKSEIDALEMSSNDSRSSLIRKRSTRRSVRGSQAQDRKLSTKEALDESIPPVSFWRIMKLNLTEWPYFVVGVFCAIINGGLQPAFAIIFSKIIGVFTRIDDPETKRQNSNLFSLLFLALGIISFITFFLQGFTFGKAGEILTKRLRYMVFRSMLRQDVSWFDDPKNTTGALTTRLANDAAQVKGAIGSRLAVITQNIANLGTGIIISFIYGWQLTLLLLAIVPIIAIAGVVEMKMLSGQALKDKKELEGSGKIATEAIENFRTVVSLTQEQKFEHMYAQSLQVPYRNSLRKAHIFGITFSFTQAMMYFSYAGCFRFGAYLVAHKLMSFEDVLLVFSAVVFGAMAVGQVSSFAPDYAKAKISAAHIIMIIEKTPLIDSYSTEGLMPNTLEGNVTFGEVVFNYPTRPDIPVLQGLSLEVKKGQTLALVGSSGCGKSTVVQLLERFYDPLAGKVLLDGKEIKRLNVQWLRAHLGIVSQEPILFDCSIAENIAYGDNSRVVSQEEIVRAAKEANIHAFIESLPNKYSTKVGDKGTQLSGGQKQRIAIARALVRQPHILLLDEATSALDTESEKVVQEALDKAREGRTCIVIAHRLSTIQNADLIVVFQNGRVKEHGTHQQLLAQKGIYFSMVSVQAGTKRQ
smiles,measurement,setting,value
"CC(N)Cc1cccc(C(F)(F)F)c1.Cl (stereo not shown) [nFFA, [1‐(3‐trifluoromethyl)phenyl]propan‐2‐amine hydrochloride]","% as effective as the positive control, omeprazole (CYP1A2 mRNA)",CYP1A2 mRNA; [2],< 20%
same,fold change in CYP1A2 mRNA levels,CYP1A2 mRNA; [2],< 2 fold
same,Fold‐change method: Potential to induce,CYP1A2 mRNA; hepatocytes HC7‐8,No
same,Fold‐change method: Fold change,CYP1A2 mRNA; hepatocytes HC7‐8,1.74 fold
same,Fold‐change method: % of control,CYP1A2 mRNA; hepatocytes HC7‐8,2.35%
same,Fold‐change method: Potential to induce,CYP1A2 mRNA; hepatocytes HC10‐8,No
same,Fold‐change method: Fold change,CYP1A2 mRNA; hepatocytes HC10‐8,1.92 fold
same,Fold‐change method: % of control,CYP1A2 mRNA; hepatocytes HC10‐8,1.79%
same,Fold‐change method: Potential to induce,CYP1A2 mRNA; hepatocytes HC10‐10,No
same,Fold‐change method: Fold change,CYP1A2 mRNA; hepatocytes HC10‐10,1.86 fold
same,Fold‐change method: % of control,CYP1A2 mRNA; hepatocytes HC10‐10,1.96%
same,IC50,CYP3A4/5; substrate midazolam,> 100 µM
same,IC50,CYP3A4/5; substrate testosterone,> 100 µM
same,Basic model: Potential for clinical inhibition (R1),CYP3A4/5; substrate midazolam,No (Potential to inhibit if R1 ≥ 1.02)
same,Static mechanistic model: Potential for clinical inhibition,CYP3A4/5; substrate midazolam,No (Potential to inhibit if AUCR ≥ 1.25)
same,Basic model: Potential for clinical inhibition (R1),CYP3A4/5; substrate testosterone,No (Potential to inhibit if R1 ≥ 1.02)
same,Static mechanistic model: Potential for clinical inhibition,CYP3A4/5; substrate testosterone,No (Potential to inhibit if AUCR ≥ 1.25)
same,Basic model: R1,"CYP3A4/5; substrate testosterone, R1 = 1 + (Imax,u/Ki,u)",1.00
same,CYP2B6 induction (abstract),CYP2B6 mRNA; cultured human hepatocytes,up to 2.0 fold
same,Basic kinetic model: Potential to induce,CYP2B6 mRNA; hepatocytes HC7‐8,No
same,Fold‐change method: Potential to induce,CYP2B6 mRNA; hepatocytes HC7‐8,Yes
same,Static mechanistic model: Potential to induce,CYP2B6 mRNA; hepatocytes HC7‐8,No (AUCR <0.8 to denote induction)
same,Fold‐change method: Fold change,CYP2B6 mRNA; hepatocytes HC7‐8,2.15 fold
same,Basic kinetic model: R3,CYP2B6 mRNA; hepatocytes HC7‐8,0.92
same,Fold‐change method: % of control,CYP2B6 mRNA; hepatocytes HC7‐8,10.60%
same,Basic kinetic model: Emax (fold),CYP2B6 mRNA; hepatocytes HC7‐8,1.14 ± 0.083 fold
same,EC50,CYP2B6 mRNA; hepatocytes HC7‐8,10.8 ± 2.3 µM
same,Basic kinetic model: Potential to induce,CYP2B6 mRNA; hepatocytes HC10‐8,No
same,Fold‐change method: Potential to induce,CYP2B6 mRNA; hepatocytes HC10‐8,Yes
same,Static mechanistic model: Potential to induce,CYP2B6 mRNA; hepatocytes HC10‐8,No (AUCR <0.8 to denote induction)
same,Fold‐change method: Fold change,CYP2B6 mRNA; hepatocytes HC10‐8,3.01 fold
same,Basic kinetic model: R3,CYP2B6 mRNA; hepatocytes HC10‐8,0.93
same,Fold‐change method: % of control,CYP2B6 mRNA; hepatocytes HC10‐8,21.20%
same,Basic kinetic model: Emax (fold),CYP2B6 mRNA; hepatocytes HC10‐8,2.08 ± 0.197 fold
same,EC50,CYP2B6 mRNA; hepatocytes HC10‐8,26.4 ± 2.9 µM
same,Basic kinetic model: Potential to induce,CYP2B6 mRNA; hepatocytes HC10‐10,No
same,Fold‐change method: Potential to induce,CYP2B6 mRNA; hepatocytes HC10‐10,Yes
same,Static mechanistic model: Potential to induce,CYP2B6 mRNA; hepatocytes HC10‐10,No (AUCR <0.8 to denote induction)
same,Fold‐change method: Fold change,CYP2B6 mRNA; hepatocytes HC10‐10,2.54 fold
same,Basic kinetic model: R3,CYP2B6 mRNA; hepatocytes HC10‐10,0.88
same,Fold‐change method: % of control,CYP2B6 mRNA; hepatocytes HC10‐10,21.60%
same,Basic kinetic model: Emax (fold),CYP2B6 mRNA; hepatocytes HC10‐10,1.36 ± 0.11 fold
same,EC50,CYP2B6 mRNA; hepatocytes HC10‐10,8.81 ± 1.6 µM
same,IC50,P‐gp,> 50 µM
same,IC50,"CYP2B6; direct inhibition, human liver microsomes",> 100 µM
same,Inhibition (%),"CYP2B6; direct inhibition, FFA up to 60 µM, nFFA up to 100 µM",23%
same,Basic model: Potential for clinical inhibition,CYP2B6,No (Potential to inhibit if R1 ≥ 1.02)
same,Static mechanistic model: Potential for clinical inhibition,CYP2B6,No (Potential to inhibit if AUCR ≥ 1.25)
same,Basic model: R1,"CYP2B6; R1 = 1 + (Imax,u/Ki,u)",1.00
same,Portal inlet [I]h,[1]; calculated as (Imax + (Fa × Fg × ka × molar dose) / Qh) / Rb,0.094 µM
same,"Cmax, unbound","[1]; calculated as Cmax, total (ng/mL)/MW * fu",94 nM
same,IC50,"CYP2D6; direct inhibition (no preincubation), human liver microsomes, substrate dextromethorphan",16 ± 1 µM
same,Inhibition (%),"CYP2D6; direct inhibition, substrate dextromethorphan, FFA up to 60 µM, nFFA up to 100 µM",82%
same,Ah (guidance term),"CYP2D6; mechanistic static model, Supplemental Table 2",0.988
same,Ki,"CYP2D6; read-out: Ki, u, IC50 divided by 2, assumes [S] = Km, adjusted for estimated unbound fraction in microsomes",7.86 µM
same,Basic model: Potential for clinical inhibition,CYP2D6; substrate dextromethorphan,No (Potential to inhibit if R1 ≥ 1.02)
same,Static mechanistic model: Potential for clinical inhibition,CYP2D6; substrate dextromethorphan,No (Potential to inhibit if AUCR ≥ 1.25)
same,Basic model: R1,"CYP2D6; substrate dextromethorphan, R1 = 1 + (Imax,u/Ki,u)",1.01
